# Assay results: ChEMBL document CHEMBL1137883, “Synthesis and vasorelaxant properties of hybrid molecules out of NO-donors and the beta-receptor blocking drug propranolol” (2004)
# Columns and labels:
# Sus scrofa [1] = species: Sus scrofa; experiment: Concentration required for relaxation of PGF2-alpha (3 uM)-precontracted porcine pulmonary arteries; activity expressed as pD2
# Sus scrofa [2] = species: Sus scrofa; experiment: Concentration required for relaxation of isolated porcine coronary arteries; activity expressed as pD2; assay type: functional
pD2 (Sus scrofa [1]),Structure (SMILES),pD2 (Sus scrofa [2])
6.94,CC(=O)N[C@@H](C(=O)N(CC(O)COc1cccc2ccccc12)C(C)C)C(C)(C)SN=O (some centres undefined),–
5.4,CC(C)N(CC(O)COc1cccc2ccccc12)C(=O)C(C)(C)CO[N+](=O)[O-] (centres undefined),–
–,CC(=O)N[C@@H](C(=O)O)C(C)(C)SN=O,6.69

Structure (SMILES),pD2 (Sus scrofa [1]),pD2 (Sus scrofa [2])
CC(C)(CO[N+](=O)[O-])C(=O)O,4.69,–
